Tests used:
NF-κB p65 = NF-κB p65 nuclear translocation in NSC-34 immortalized motoneurons, immunoblot; type: cell-based; conditions: NSC-34 cells, 24 h
Experimental: (§1) FIGS. 4A-4F. SYN1 and SYN2 increase the expression and activity of NF-κB target genes, such as MnSOD in neurons. […] A commercially available kit, modified to detect MnSOD activity in primary neurons, was used. Neurons were exposed to 3 mM SYN1 or 300 nM SYN2 for 24 h. […] TNF-α was included as a reference. FIGS. 4B, 4D and 4F show SYN1 and SYN2 increase MnSOD protein expression. Mature primary neurons (FIG. 4B), SH-SY5Y cells (FIG. 4D), and NSC-34 cells (FIG. 4F) were treated for 24 h with the compounds. Thereafter, cells were lysed, and proteins were extracted and subjected to SDS-PAGE. Immunoblots were then performed following the instructions of the antibody manufacturer. ECL was used for detection. […] The effect of TNF exposure is provided for reference. […] Primary cortical neurons at 6 D.I.V. were pretreated for 24 h with compounds and then challenged with 80 μM of H2O2. […] SYN1 at 3 μM inhibited cell death by 100%. […] The protection exceeded 60% and extended up to a concentration of 1 μM. […] NSC-34 cells were treated for 24 h with the compounds. Thereafter, cells were lysed, and cytosolic and nuclear fractions were separated. Subsequently, SDS-PAGE and immunoblots were performed. ECL was used for detection. […] The effect of TNF exposure was provided for reference. […] ANOVA+Bonferroni's.

SOD-1-G93A ALS mouse = experiment: SOD-1-G93A ALS mouse: survival, weight, neurologic score; type: in vivo; conditions: for survival (Kaplan-Meier analysis): administration at the time of onset; for body weight lost / inhibition of body weight loss: at 120 days; for inhibition of body weight loss: versus control animals; for lifespan extension at 50% survival: male mice, 25 mg/kg IP daily from day 96
Experimental: FIGS. 6A-6D. Effect of SYN1 and SYN2 in SOD-1-G93A ALS mouse. The animals were received at day 70 and kept until day 96, at which time daily IP treatment was started with 25 mg/kg of the compounds. Weight and standard neurologic scores (N.S.) were assessed on alternate days. A N.S. of 4 triggered the exception (euthanized accordingly to humane practices). […] Data in FIGS. 6A and 6B document a 66% and an 81% lifespan extension for SYN1 and SYN2, respectively, at 50% survival in male mice. […] The average weight within the groups before the treatment was similar (inset to FIG. 6C). However, at 120 days, control animals lost on average 12% of the body weight (FIG. 6C). […] Although progression from N.S. 0 to 1 was delayed only by SYN1 (2 day delay, +30%), progression to higher N.S. was delayed by both agents (FIG. 6D). […] Control animals reached N.S.=2 at 30 days on average; treated animals reached N.S.=2 at day 46 or later on average. *P<0.05; **P<0.01.

MnSOD [1] = experiment: MnSOD protein expression by immunoblot in neurons; type: cell-based; conditions: 24 h; for MnSOD expression by Western blot: NSC-34 cells; for MnSOD protein expression: mature primary neurons, SH-SY5Y cells and NSC-34 cells
Experimental: as §1

Primary cortical neurons = experiment: Neurotoxicity induced by H2O2 in primary cortical neurons; type: cell-based; conditions: 24 h pretreatment, 80 μM H2O2
Experimental: as §1

MnSOD [2] = experiment: MnSOD activity in primary neurons (modified commercial kit); type: cell-based; conditions: 3 mM SYN1 or 300 nM SYN2 for 24 h
Experimental: as §1

HSP27 = experiment: Cytoplasmic chaperone expression by qPCR in SH-5YSY; type: cell-based; conditions: 24 h treatment
Experimental: (§2) FIG. 5. Effect of SYN1 on cytoplasmic chaperones expression. The expression of the genes listed in the graph was assessed using qPCR in SH-5YSY after 24 h treatment with SYN1.

HSP70-2 = experiment: as above; type: cell-based; conditions: 24 h treatment
Experimental: as §2

HSP-dependent mRNAs = experiment: as above; type: cell-based; conditions: 24 h treatment
Experimental: as §2

Compound | p65 nuclear presence (NF-κB p65) | time spent at N.S.1 (SOD-1-G93A ALS mouse; 25 mg/kg IP daily) | survival (Kaplan-Meier analysis) (SOD-1-G93A ALS mouse; 25 mg/kg IP daily) | body weight lost (SOD-1-G93A ALS mouse; 25 mg/kg IP daily) | inhibition of body weight loss (SOD-1-G93A ALS mouse) | lifespan extension at 50% survival (SOD-1-G93A ALS mouse) | MnSOD expression by Western blot (MnSOD [1]) | MnSOD protein expression (MnSOD [1]) | concentration of peak effect (Primary cortical neurons) | concentration up to which protection extended (Primary cortical neurons) | protection (Primary cortical neurons) | MnSOD activity (MnSOD [2]) | delay of progression from N.S. 0 to 1 (SOD-1-G93A ALS mouse; 25 mg/kg IP daily) | delay of progression from N.S. 0 to 1, relative (SOD-1-G93A ALS mouse; 25 mg/kg IP daily) | HSP27 gene expression (HSP27) | HSP70-2 gene expression (HSP70-2) | HSP-dependent mRNAs (HSP-dependent mRNAs) | inhibition of cell death (Primary cortical neurons; 3 μM)
Cc1cccnc1Nc1nc(-c2ccccn2)cs1 [SYN2] | increased p65 nuclear presence | increased the time spent at N.S.1 | significantly extended survival | 4% | 65% | 81% | increased expression of MnSOD | increased MnSOD expression in all three kinds of neurons | 300 nM | ≤ 1 µM | exceeded 60% | significantly increased |  |  |  |  |  | 
O=C(/C=C/Nc1ccccc1Br)c1ccc2c(c1)OCO2 [SYN1] | increased p65 nuclear presence | increased the time spent at N.S.1 | significantly extended survival | 3% | 75% | 66% | increased expression of MnSOD | increased MnSOD expression in all three kinds of neurons |  |  |  | significantly increased | 2 days | 30% | significantly up-regulated | significantly up-regulated | significantly increased | 100%

Reference: patent US10808247B2, “Methods for treating neurological disorders using a synergistic small molecule and nucleic acids therapeutic approach” (Phio Pharmaceuticals Corp., priority 2015, dated 2020)
